Molecules are shown by their SMILES. Read-outs that look alike come from different tables or passages of the source.

In one experiment the target is T1, SYK kinase (Homo sapiens, UniProt P43405).
T1 construct: purchased Invitrogen, Carlsbad
As to the kind of experiment: SYK assay (OMNIA Kinase Assay, Invitrogen). The format is biochemical. The conditions noted are these: apparent Ki calculated from the IC50 using the Cheng-Prusoff equation; 1 mM ATP, 10 μM Peptide Substrate; read-out: SYK Activities: Ki. An outline of the steps:
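Reaction velocities were measured from kinetic fluorescence reads (360/485 nm, every 30 s over 30 min) of Mg2+-chelated SOX signal. Conditions were 1 mM ATP, 10 μM Omnia Tyr 7 peptide and 0.2 mM DTT at 30° C. Sigmoidal IC50 fits were converted to apparent Ki using Cheng-Prusoff.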

A further experiment concerns the target LRRK2 (Homo sapiens, UniProt Q5S007). In words: LRRK2 assay (LanthaScreen Eu Kinase Binding Assay). The essentials: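 IC50 was derived from a sigmoidal dose-response fit with variable slope, plotting emission ratio against inhibitor concentration. The read-out is loss of FRET between a europium-labelled anti-tag antibody on the kinase and a tracer displaced by inhibitor.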
Background: Time-resolved FRET reads energy transfer from a long-lived donor to a nearby acceptor.

The target of a further experiment is MYLK (Homo sapiens, UniProt Q15746). As to the kind of experiment: MYLK assay (LanthaScreen Eu Kinase Binding Assay). On the procedure: In the assay LanthaScreen™ Eu Kinase Binding Assay by Invitrogen Corporation (Carlsbad) the effect of invention of a compound on the phosphorylation is determined by measurement of fluorescence intensity emission ratio based on the binding and displacement of a proprietary, Alexa Fluor® 647-labeled, ATP-competitive kinase inhibitor scaffold (kinase tracer) to the kinase of interest as described above.
Sequence of MYLK (Q15746 whole entry): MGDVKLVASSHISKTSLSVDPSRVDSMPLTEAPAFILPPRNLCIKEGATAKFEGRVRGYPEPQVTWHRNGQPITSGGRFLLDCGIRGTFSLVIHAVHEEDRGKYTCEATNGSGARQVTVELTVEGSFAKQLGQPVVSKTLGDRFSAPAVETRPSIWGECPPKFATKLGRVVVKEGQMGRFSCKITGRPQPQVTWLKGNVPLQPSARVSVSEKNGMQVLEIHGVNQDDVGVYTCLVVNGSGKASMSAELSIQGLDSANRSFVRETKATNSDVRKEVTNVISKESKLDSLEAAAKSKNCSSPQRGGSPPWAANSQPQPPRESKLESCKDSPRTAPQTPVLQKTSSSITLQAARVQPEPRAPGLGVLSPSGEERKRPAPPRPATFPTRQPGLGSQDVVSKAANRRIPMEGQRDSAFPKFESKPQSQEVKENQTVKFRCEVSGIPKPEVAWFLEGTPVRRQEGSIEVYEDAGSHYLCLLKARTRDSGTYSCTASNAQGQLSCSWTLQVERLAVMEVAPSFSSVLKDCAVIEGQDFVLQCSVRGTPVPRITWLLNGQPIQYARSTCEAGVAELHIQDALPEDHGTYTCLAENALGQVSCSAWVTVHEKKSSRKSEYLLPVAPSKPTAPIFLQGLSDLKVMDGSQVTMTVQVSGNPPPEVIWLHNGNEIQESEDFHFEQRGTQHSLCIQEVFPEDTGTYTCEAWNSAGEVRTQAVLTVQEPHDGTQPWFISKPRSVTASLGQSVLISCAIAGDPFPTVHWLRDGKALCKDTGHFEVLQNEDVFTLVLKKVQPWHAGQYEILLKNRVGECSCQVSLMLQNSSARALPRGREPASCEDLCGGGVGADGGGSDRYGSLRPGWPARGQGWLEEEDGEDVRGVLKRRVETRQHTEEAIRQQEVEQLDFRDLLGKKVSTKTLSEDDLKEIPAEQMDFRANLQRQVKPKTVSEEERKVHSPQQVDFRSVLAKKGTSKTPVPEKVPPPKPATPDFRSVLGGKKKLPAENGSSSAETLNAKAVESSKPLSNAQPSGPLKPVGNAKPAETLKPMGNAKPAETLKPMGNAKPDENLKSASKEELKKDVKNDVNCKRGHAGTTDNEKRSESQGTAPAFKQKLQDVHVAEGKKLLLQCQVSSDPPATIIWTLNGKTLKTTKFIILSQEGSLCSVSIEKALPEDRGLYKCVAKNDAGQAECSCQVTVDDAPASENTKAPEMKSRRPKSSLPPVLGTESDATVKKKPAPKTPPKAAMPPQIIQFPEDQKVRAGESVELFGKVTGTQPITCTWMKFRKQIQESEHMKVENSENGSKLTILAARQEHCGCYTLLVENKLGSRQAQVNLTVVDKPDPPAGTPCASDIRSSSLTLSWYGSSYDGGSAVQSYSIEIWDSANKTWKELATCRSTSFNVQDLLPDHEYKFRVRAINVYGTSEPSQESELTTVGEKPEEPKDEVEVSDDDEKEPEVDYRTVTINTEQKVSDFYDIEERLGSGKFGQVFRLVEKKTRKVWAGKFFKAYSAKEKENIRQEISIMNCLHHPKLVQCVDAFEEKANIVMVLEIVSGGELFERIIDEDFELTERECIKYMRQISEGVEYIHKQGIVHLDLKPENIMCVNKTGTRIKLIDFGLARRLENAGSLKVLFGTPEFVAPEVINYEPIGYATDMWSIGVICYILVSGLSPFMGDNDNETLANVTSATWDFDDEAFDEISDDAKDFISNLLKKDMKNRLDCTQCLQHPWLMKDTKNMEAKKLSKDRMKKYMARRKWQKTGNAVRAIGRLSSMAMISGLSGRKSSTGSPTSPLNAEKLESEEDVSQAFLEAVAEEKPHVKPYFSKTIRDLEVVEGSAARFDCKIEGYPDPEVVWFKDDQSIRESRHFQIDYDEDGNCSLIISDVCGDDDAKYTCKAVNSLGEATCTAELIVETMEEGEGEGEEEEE
To the wells of an 384 well small volume plate (Greiner, Frickenhausen) are added (i) the compound under test in 5% DMSO/distilled water (5 μl), (ii) 5 μl of the kinase antibody mixture resulting in a final concentration 5 nM MYLK, 2 nM EU-Anti-GST antibody in 1× kinase buffer A. The reaction was started with addition of (iii) 5 μl resulting in a final concentration of 30 nM tracer 236. The assay plate was incubated at RT for 1 h and fluorescence intensitiy readings were collected using a TECAN M1000 at two wavelengthes of λex 340/λem 615 nm and λex 340/λem 665 nm with a delay time of 100 μs and an integration time of 200 μs after 60 minutes. The emission ratio was calculated by division of the acceptor/tracer emission ([…]) by the antibody/donor emission ([…]). The inhibitor concentration was plotted versus the emission ratio to determine the IC50 using XLFit 5.0 (IDBS, Guildford) to fit to a sigmoidal dose response curve with a variable slope.

Where [1] appears, read: 5 nM LRRK2, 10 nM tracer 236, RT 1 h, read-out: LRRK2 Activites: IC50.
Where [2] appears, read: 5 nM MYLK, 30 nM tracer 236, RT 1 h, read-out: MYLK Activites: IC50.
The mark [3] stands for this setting: LRRK2 Activites: IC50, 5 nM LRRK2, 10 nM tracer 236, RT 1 h.

Sequence of LRRK2 (Q5S007 970-2527 limits assumed): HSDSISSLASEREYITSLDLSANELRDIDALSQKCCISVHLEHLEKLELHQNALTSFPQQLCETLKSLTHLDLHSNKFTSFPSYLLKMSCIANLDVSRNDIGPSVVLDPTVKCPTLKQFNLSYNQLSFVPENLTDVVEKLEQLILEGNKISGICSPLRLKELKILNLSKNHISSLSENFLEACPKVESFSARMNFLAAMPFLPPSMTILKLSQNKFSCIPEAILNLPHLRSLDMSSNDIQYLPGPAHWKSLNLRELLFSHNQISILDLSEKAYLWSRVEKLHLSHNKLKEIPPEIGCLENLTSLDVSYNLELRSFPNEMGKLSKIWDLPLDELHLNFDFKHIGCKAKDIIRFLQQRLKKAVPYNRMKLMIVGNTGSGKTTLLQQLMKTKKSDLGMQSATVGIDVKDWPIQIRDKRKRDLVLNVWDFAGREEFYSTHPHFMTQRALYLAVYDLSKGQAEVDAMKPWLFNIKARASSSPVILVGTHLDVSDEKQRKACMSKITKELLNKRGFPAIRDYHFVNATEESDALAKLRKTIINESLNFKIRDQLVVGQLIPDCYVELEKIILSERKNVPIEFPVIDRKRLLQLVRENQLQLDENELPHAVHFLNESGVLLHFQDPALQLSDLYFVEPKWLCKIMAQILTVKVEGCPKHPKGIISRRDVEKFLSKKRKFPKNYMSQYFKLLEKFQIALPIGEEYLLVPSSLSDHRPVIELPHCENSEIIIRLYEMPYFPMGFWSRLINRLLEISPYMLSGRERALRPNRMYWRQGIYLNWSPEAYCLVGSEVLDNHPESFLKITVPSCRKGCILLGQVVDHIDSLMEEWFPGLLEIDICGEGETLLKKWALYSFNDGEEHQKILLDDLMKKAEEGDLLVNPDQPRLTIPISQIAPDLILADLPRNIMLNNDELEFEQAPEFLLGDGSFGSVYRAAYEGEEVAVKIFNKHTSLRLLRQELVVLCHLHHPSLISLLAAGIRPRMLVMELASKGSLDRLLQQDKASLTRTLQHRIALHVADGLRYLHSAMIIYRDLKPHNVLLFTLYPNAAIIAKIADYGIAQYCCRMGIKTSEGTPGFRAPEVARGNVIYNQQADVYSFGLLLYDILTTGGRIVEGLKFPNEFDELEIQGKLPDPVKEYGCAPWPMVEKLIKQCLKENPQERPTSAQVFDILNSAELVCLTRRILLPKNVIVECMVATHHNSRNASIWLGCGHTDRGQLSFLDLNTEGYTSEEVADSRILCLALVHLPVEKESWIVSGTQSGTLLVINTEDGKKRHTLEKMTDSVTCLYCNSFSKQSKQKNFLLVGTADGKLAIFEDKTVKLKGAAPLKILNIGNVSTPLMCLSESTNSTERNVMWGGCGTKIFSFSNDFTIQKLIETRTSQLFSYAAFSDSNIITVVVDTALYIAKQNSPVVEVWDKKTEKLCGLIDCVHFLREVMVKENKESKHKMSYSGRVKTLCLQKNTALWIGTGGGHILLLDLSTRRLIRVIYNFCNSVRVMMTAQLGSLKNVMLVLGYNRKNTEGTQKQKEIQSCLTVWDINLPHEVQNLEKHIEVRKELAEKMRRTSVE

With `COc1ccc2nc(Nc3ccccc3)c3n[nH]cc3c2c1` [Example #13, (8-Methoxy-2H-pyrazolo[3,4-c]quinolin-4-yl)-phenyl-amine], the Ki at SYK kinase was 10 to 100 nM. The results for the IC50 at LRRK2 (setting [1]) and at MYLK (setting [2]) were 100 to 1000 nM and under 5000 nM, respectively.
On to `Brc1ccc2nc(Nc3ccc4[nH]cnc4c3)c3n[nH]cc3c2c1` [Example #34, (1H-Benzoimidazol-5-yl)-(8-bromo-2H-pyrazolo[3,4-c]quinolin-4-yl)-amine], for which the Ki on SYK kinase is 10 to 100 nM. In addition, the IC50 at LRRK2 (setting [1]) is 100 to 1000 nM; on MYLK (setting [2]), under 5000 nM.
As to `COc1ccc2nc(Nc3ccc4[nH]ncc4c3)c3n[nH]cc3c2c1` [Example #38, (1H-Indazol-5-yl)-(8-methoxy-2H-pyrazolo[3,4-c]quinolin-4-yl)-amine], the Ki at SYK kinase was 10 to 100 nM. Besides, the IC50 at LRRK2 (setting [1]) was 100 to 1000 nM; on MYLK (setting [2]) it was under 5000 nM.
Consider `COc1ccc2nc(Nc3ccc4[nH]cnc4c3)c3n[nH]cc3c2c1` [Example #39, (1H-Benzoimidazol-5-yl)-(8-methoxy-2H-pyrazolo[3,4-c]quinolin-4-yl)-amine], for which, at SYK kinase, the Ki was 10 to 100 nM. Moreover, the half-inhibitory concentration (IC50) is 100 to 1000 nM at LRRK2 (setting [1]) and under 5000 nM at MYLK (setting [2]).
With `COc1ccc2nc(Nc3ccc(N4CCN(C)CC4)cc3)c3n[nH]cc3c2c1` [Example #42, (8-Methoxy-2H-pyrazolo[3,4-c]quinolin-4-yl)-[4-(4-methyl-piperazin-1-yl)-phenyl]-amine], the Ki on SYK kinase is 10 to 100 nM. Also, the results for the half-maximal inhibitory concentration (IC50) on LRRK2 (setting [1]) and at MYLK (setting [2]) were 10 to 100 nM and under 5000 nM, respectively.
For `CN1CCN(c2ccc(Nc3nc4ccc(Br)cc4c4c[nH]nc34)cc2)CC1` [Example #43, (8-Bromo-2H-pyrazolo[3,4-c]quinolin-4-yl)-[4-(4-methyl-piperazin-1-yl)-phenyl]-amine], on SYK kinase, the Ki was under 10 nM. For the same molecule, the IC50 was 100 to 1000 nM on LRRK2 (setting [1]) and under 5000 nM at MYLK (setting [2]).
Taken in the same sequence, the figures for `COc1ccc2nc(Nc3cccc(N)c3)c3n[nH]cc3c2c1` [Example #44, N-(8-Methoxy-2H-pyrazolo[3,4-c]quinolin-4-yl)-benzene-1,3-diamine] were 10 to 100 nM, 10 to 100 nM and under 5000 nM.
Consider `COc1ccc2nc(Nc3cccc(C(=N)N)c3)c3n[nH]cc3c2c1` [Example #49, 3-(8-Methoxy-2H-pyrazolo[3,4-c]quinolin-4-ylamino)-benzamidine], for which the Ki on SYK kinase is 100 to 1000 nM. For the same molecule, the IC50 at LRRK2 (setting [1]) is 100 to 1000 nM; on MYLK (setting [2]), under 5000 nM.
For `COc1ccc2nc(Nc3cccc(C(N)=O)c3)c3n[nH]cc3c2c1` [Example #52, 3-(8-Methoxy-2H-pyrazolo[3,4-c]quinolin-4-ylamino)-benzamide], on SYK kinase, the Ki is 100 to 1000 nM. Moreover, the IC50 at LRRK2 (setting [1]) is 100 to 1000 nM; on MYLK (setting [2]), under 5000 nM.
As to `COc1ccc2nc(Nc3ccc(OC)c(OC)c3)c3n[nH]cc3c2c1` [Example #53, (3,4-Dimethoxy-phenyl)-(8-methoxy-2H-pyrazolo[3,4-c]quinolin-4-yl)-amine], on SYK kinase, the Ki is 10 to 100 nM. The figures for the IC50 on LRRK2 (setting [1]) and at MYLK (setting [2]) were 100 to 1000 nM and under 5000 nM, respectively.
Take `COc1ccc2nc(Nc3ccc4nc(C)[nH]c4c3)c3n[nH]cc3c2c1` [Example #55, (8-Methoxy-2H-pyrazolo[3,4-c]quinolin-4-yl)-(2-methyl-3H-benzoimidazol-5-yl)-amine]: the Ki on SYK kinase is 10 to 100 nM. The IC50 is 100 to 1000 nM on LRRK2 (setting [1]) and under 5000 nM on MYLK (setting [2]).
Turning to `c1cnc2c(c1)nc(Nc1ccc3[nH]ncc3c1)c1n[nH]cc12` [Example #56, (1H-Indazol-5-yl)-(2H-2,3,5,9-tetraaza-cyclopenta[a]naphthalen-4-yl)-amine], the Ki on SYK kinase was under 10 nM. Besides, the IC50 on LRRK2 (setting [1]) was 10 to 100 nM; at MYLK (setting [2]), under 5000 nM.
Consider `COc1ccc2nc(Nc3ccc(C(=O)O)cc3)c3n[nH]cc3c2c1` [Example #57, 4-(8-Methoxy-2H-pyrazolo[3,4-c]quinolin-4-ylamino)-benzoic-acid], for which, on SYK kinase, the Ki is 10 to 100 nM. The half-inhibitory concentration (IC50) on LRRK2 (setting [1]) was 100 to 1000 nM; at MYLK (setting [2]), under 5000 nM.
With `COc1ccc2nc(Nc3cc(OC)c(OC)c(OC)c3)c3n[nH]cc3c2c1` [Example #67, (8-Methoxy-2H-pyrazolo[3,4-c]quinolin-4-yl)-(3,4,5-trimethoxy-phenyl)-amine], the Ki at SYK kinase was under 10 nM. The IC50 at LRRK2 (setting [1]) was 100 to 1000 nM; at MYLK (setting [2]), under 5000 nM.
As for `COc1ccc2nc(Nc3ccc4[nH]c(=O)[nH]c4c3)c3n[nH]cc3c2c1` [Example #71, 5-(8-Methoxy-2H-pyrazolo[3,4-c]quinolin-4-ylamino)-1,3-dihydro-benzoimidazol-2-one], on SYK kinase, the Ki was 10 to 100 nM. Moreover, the values for the 50% inhibitory concentration (IC50) at LRRK2 (setting [1]) and on MYLK (setting [2]) were 100 to 1000 nM and under 5000 nM, respectively.
Taken in the same sequence, the figures for `COc1ccc2nc(Nc3ccc(CN)cc3)c3[nH]ncc3c2c1` [Example #73, (4-Aminomethyl-phenyl)-(8-methoxy-3H-pyrazolo[3,4-c]quinolin-4-yl)-amine] were 10 to 100 nM, 100 to 1000 nM and under 5000 nM.
Take `CN(C)c1ccc(Nc2nc3ccc(Br)cc3c3c[nH]nc23)cc1` [Example #84, N-(8-Bromo-2H-pyrazolo[3,4-c]quinolin-4-yl)-N′,N′-dimethyl-benzene-1,4-diamine]: the Ki on SYK kinase was 10 to 100 nM. For the same molecule, the IC50 at LRRK2 (setting [1]) is 100 to 1000 nM; on MYLK (setting [2]), under 5000 nM.
For the molecule `COc1ccc2nc(Nc3ccc(C4=NCCN4)cc3)c3n[nH]cc3c2c1` [Example #86, [4-(4,5-Dihydro-1H-imidazol-2-yl)-phenyl]-(8-methoxy-2H-pyrazolo[3,4-c]quinolin-4-yl)-amine], on SYK kinase, the Ki was 10 to 100 nM. Further, the values for the IC50 at LRRK2 (setting [1]) and on MYLK (setting [2]) were 100 to 1000 nM and under 5000 nM, respectively.
On to `COc1ccc2nc(Nc3cccc(C(C)=O)c3)c3n[nH]cc3c2c1` [Example #127, 1-[3-(8-Methoxy-2H-pyrazolo[3,4-c]quinolin-4-ylamino)-phenyl]-ethanone], for which the IC50 is 100 to 1000 nM on LRRK2 (setting [1]) and under 5000 nM at MYLK (setting [2]).
On the same counts, the results for `COc1ccc2nc(Nc3ccc(C(=O)N4CCC(N5CCN(C)CC5)CC4)cc3OC)c3n[nH]cc3c2c1` [Example #295, (3-methoxy-4-((8-methoxy-2H-pyrazolo[3,4-c]quinolin-4-yl)amino)phenyl)(4-(4-methylpiperazin-1-yl)piperidin-1-yl)methanone] are 10 to 100 nM and under 5000 nM.
Consider `COc1ccc2nc(Nc3ccc(C(=O)N4CCCN(C)CC4)cc3)c3n[nH]cc3c2c1` [Example #304, (4-((8-methoxy-2H-pyrazolo[3,4-c]quinolin-4-yl)amino)phenyl)(4-methyl-1,4-diazepan-1-yl)methanone], for which the 50% inhibitory concentration (IC50) at LRRK2 (setting [1]) was 100 to 1000 nM; on MYLK (setting [2]), under 5000 nM.
In the case of `COc1ccc2nc(Nc3ccc(C(=O)N4CCC(=O)CC4)cc3)c3n[nH]cc3c2c1` [Example #305, 1-(4-((8-methoxy-2H-pyrazolo[3,4-c]quinolin-4-yl)amino)benzoyl)piperidin-4-one], the IC50 at LRRK2 (setting [3]) was 10 to 100 nM; at MYLK, under 5000 nM.
On to `COc1ccc2nc(Nc3ccc(C(=O)N4CCC5(CC4)OCCO5)cc3)c3n[nH]cc3c2c1` [Example #306, (4-((8-methoxy-2H-pyrazolo[3,4-c]quinolin-4-yl)amino)phenyl)(1,4-dioxa-8-azaspiro[4.5]decan-8-yl)methanone], for which the values for the half-maximal inhibitory concentration (IC50) on LRRK2 (setting [3]) and on MYLK were 10 to 100 nM and under 5000 nM, respectively.
On to `COc1ccc2nc(Nc3ccc(C(=O)N4CCC(N(C)C)C4)cc3)c3n[nH]cc3c2c1` (stereo not drawn) [Example #307, (3-(dimethylamino)pyrrolidin-1-yl)(4-((8-methoxy-2H-pyrazolo[3,4-c]quinolin-4-yl)amino)phenyl)methanone], for which the figures for the half-inhibitory concentration (IC50) on LRRK2 (setting [1]) and on MYLK (setting [2]) were 100 to 1000 nM and under 5000 nM, respectively.
As to `COc1ccc2nc(Nc3cccc(S(=O)(=O)C(F)(F)F)c3)c3n[nH]cc3c2c1` [Example #350, 8-methoxy-N-(3-((trifluoromethyl)sulfonyl)phenyl)-2H-pyrazolo[3,4-c]quinolin-4-amine], the Ki at SYK kinase is 100 to 1000 nM. At MYLK (setting [2]), the half-maximal inhibitory concentration (IC50) was under 5000 nM.
Take `COc1cccc2nc(Nc3ccc4c(c3)CN(C)C4)c3[nH]ncc3c12` [Example #352, 9-methoxy-N-(2-methylisoindolin-5-yl)-3H-pyrazolo[3,4-c]quinolin-4-amine]: the IC50 was 10 to 100 nM on LRRK2 (setting [1]) and under 5000 nM on MYLK (setting [2]).
Take `COc1ccc(Nc2nc3ccc(I)cc3c3cn[nH]c23)cc1OC` [Example #354, N-(3,4-dimethoxyphenyl)-8-iodo-3H-pyrazolo[3,4-c]quinolin-4-amine]: the Ki at SYK kinase is 100 to 1000 nM. Further, the IC50 at MYLK (setting [2]) is under 5000 nM.

Broadly, the IC50 is the concentration that gives 50% inhibition.
